Experimental data from US7067494B2, “Antimitotic eleuthesides” (The University of British Columbia, priority 2001, dated 2006).

Each compound was assayed on cells which regularly divide in culture (e.g. cancer cells) (assay: cell based antimitotic (mitotic arrest) assay using antibodies specific for mitotic cells). Conditions: cell based mitotic assay.
Excerpt: Methods suitable for assaying antimitotic activity of compounds of this invention or compounds used as precursors, may be based on the use of antibodies specific for mitotic cells, such as those described in the international patent application published Apr. 1, 1999 under WO 99/15157 or the assay described in WO 01/38339. Such an assay will typically employ cells which regularly divide in culture (e.g. cancer cells). A known antimitotic compound such as nocodazole may be used as a control. In the assay, determination of the cells which proceed to mitosis is carried out using any of the known immunological methods by employing antibodies which have specificity for mitotic cells. […] Other examples are the monoclonal antibodies recognizing phospho-epitopes in the paired helical filament proteins (PHF) found in brain tissue of patients suffering from Alzheiner's disease as described in: PCT International Application published Jul. 4, 1996 under No. WO 96/20218; and, Vincent et al. (1996) “The Journal of Cell Biology”, 132:413–425. TG-3 antibody described in the latter two references may be obtained from Albert Einstein College of Medicine of Yeshiva University, Bronx, N.Y. This antibody is highly specific for mitotic cells and functions in ELISA.
Immunological methods useful for determination of mitotic cells in an assay include any method for determining antibody-antigen binding, including: immunocytochemistry (e.g. immunofluorescence), flow cytometry, immunoblotting, and ELISA, including those described in Vincent, I. et al. [supra]. High throughput testing of samples may be readily achieved by use of the ELISA or the ELICA assays described in WO 01/38339.

Question: 2′3′-dihdro-eleutherobin [Compound 10] was tested. Which IC50 did it give?
Answer: Its IC50 is 20000 nM.

Question: With “5,6,11β,12-tetrahydro eleutherobin [Compound 9]” as the compound, how does the IC50 read?
Answer: Its IC50 is 200 nM.

Question: For `CCO[C@]12C=C[C@](C)(O1)[C@@H](OC(=O)/C=C/c1cn(C)cn1)C[C@H]1C(CO)=CC[C@H](C(C)C)[C@H]1/C=C\2COC1OCC(O)C(O)C1OC(C)=O` (stereo partly drawn) [Compound 7, 17-hydroxyeleutheside], which IC50 is on record?
Answer: Its IC50 is 20 nM.

Question: Which IC50 does the source give for `CO[C@]12CC[C@](C)(O1)[C@@H](OC(=O)CCc1cn(C)cn1)C[C@@H]1[C@H](/C=C\2COC2OCC(O)C(O)C2OC(C)=O)[C@@H](C(C)C)CC[C@@H]1C` (stereo partly drawn) [Compound 8, hexahydroeleutherobin] here?
Answer: The IC50 was greater than 10000 nM.

Question: With `CO[C@]12C=C[C@](C)(O1)[C@@H](OC(=O)/C=C/c1cn(C)cn1)C[C@H]1C(C)=CC[C@H](C(C)C)[C@H]1/C=C\2COC1OCC(O)C(O)C1OC(C)=O` (stereo partly drawn) [eleutherobin, reference compound] as the compound, how does the IC50 read?
Answer: The IC50 was 20 nM.

Same assay, conditions: compared with eleutherobin

Question: How did the “antimitotic activity relative to eleutherobin (fold less active)” value turn out when `CO[C@]12CC[C@](C)(O1)[C@@H](OC(=O)CCc1cn(C)cn1)C[C@@H]1[C@H](/C=C\2COC2OCC(O)C(O)C2OC(C)=O)[C@@H](C(C)C)CC[C@@H]1C` (stereo partly drawn) [Compound 8, hexahydroeleutherobin] was run?
Answer: Its value is “more than five thousand fold less active than eleutherobin”.
